{
  "source": "PubChem BioAssay AID1918937",
  "about": "(Molecular Pharmacology Branch, DTP, NCI, 2023)",
  "system": "521955-158-R2-J5-PDC complex spheroid viability",
  "assay": "Anticancer human tumor 521955-158-R2-J5-PDC patient-derived pancreatic carcinoma cell line growth inhibition",
  "conditions": "for pIC50: curve of first compound; for viability, T/C: stronger effect = lower value",
  "summary_of_the_method": "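Multicellular complex spheroids of tumor cells with human endothelial cells (HUVEC) and mesenchymal stem cells; the LSD1 inhibitor iadademstat was combined with standard-of-care or investigational agents. Top concentration at or near clinical Cmax, half-log dilutions; final DMSO ≤0.25%.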",
  "key": {"[1]": {"conditions": "second compound 0.1 µM, first compound 0.00316 µM"}, "[2]": {"conditions": "second compound 0.1 µM, first compound 0.01 µM"}, "[3]": {"conditions": "second compound 0.1 µM, first compound 0.0316 µM"}, "[4]": {"conditions": "second compound 0.1 µM, first compound 0.1 µM"}, "[5]": {"conditions": "second compound 0.316 µM, first compound 0.00316 µM"}, "[6]": {"conditions": "second compound 0.316 µM, first compound 0.01 µM"}, "[7]": {"conditions": "second compound 0.316 µM, first compound 0.0316 µM"}, "[8]": {"conditions": "second compound 0.316 µM, first compound 0.1 µM"}, "[9]": {"conditions": "second compound 1 µM, first compound 0.00316 µM"}, "[10]": {"conditions": "second compound 1 µM, first compound 0.01 µM"}, "[11]": {"conditions": "second compound 1 µM, first compound 0.0316 µM"}, "[12]": {"conditions": "second compound 1 µM, first compound 0.1 µM"}, "[13]": {"conditions": "second compound 3.16 µM, first compound 0.00316 µM"}, "[14]": {"conditions": "second compound 3.16 µM, first compound 0.01 µM"}, "[15]": {"conditions": "second compound 3.16 µM, first compound 0.0316 µM"}, "[16]": {"conditions": "second compound 3.16 µM, first compound 0.1 µM"}, "[17]": {"conditions": "second compound 10 µM, first compound 0.00316 µM"}, "[18]": {"conditions": "second compound 10 µM, first compound 0.01 µM"}, "[19]": {"conditions": "second compound 10 µM, first compound 0.0316 µM"}, "[20]": {"conditions": "second compound 10 µM, first compound 0.1 µM"}},
  "note": "pIC50: −log10 of the molar value.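 Note: spheroids exposed to agents for seven days.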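 Throughout, for viability, T/C: percent of DMSO vehicle control luminescence viability.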",
  "data": [
    {"smiles": "COc1cc(Nc2ncc3c(n2)-c2ccc(Cl)cc2C(c2c(F)cccc2OC)=NC3)ccc1C(=O)O", "note": "+ NC1CCC(NC2CC2c2ccccc2)CC1", "values": [
      {"measurement": "pIC50", "setting": "second compound 0.1 µM", "value": 8.23},
      {"measurement": "pIC50", "setting": "second compound 0.316 µM", "value": 7.47},
      {"measurement": "pIC50", "setting": "second compound 1 µM", "value": 7.13},
      {"measurement": "pIC50", "setting": "second compound 3.16 µM", "value": 7.82},
      {"measurement": "pIC50", "setting": "second compound 10 µM", "value": 7.38},
      {"measurement": "viability, T/C", "setting": "[1]", "value": 49.1, "unit": "%"},
      {"measurement": "viability, T/C", "setting": "[2]", "value": 54.5, "unit": "%"},
      {"measurement": "viability, T/C", "setting": "[3]", "value": 45.8, "unit": "%"},
      {"measurement": "viability, T/C", "setting": "[4]", "value": 41.7, "unit": "%"},
      {"measurement": "viability, T/C", "setting": "second compound 0.1 µM, first compound 0.316 µM", "value": 44.8, "unit": "%"},
      {"measurement": "viability, T/C", "setting": "second compound 0.1 µM, first compound 1 µM", "value": 46.7, "unit": "%"},
      {"measurement": "viability, T/C", "setting": "[5]", "value": 54.4, "unit": "%"},
      {"measurement": "viability, T/C", "setting": "[6]", "value": 56.7, "unit": "%"},
      {"measurement": "viability, T/C", "setting": "[7]", "value": 50.3, "unit": "%"},
      {"measurement": "viability, T/C", "setting": "[8]", "value": 45, "unit": "%"},
      {"measurement": "viability, T/C", "setting": "second compound 0.316 µM, first compound 0.316 µM", "value": 45.2, "unit": "%"},
      {"measurement": "viability, T/C", "setting": "second compound 0.316 µM, first compound 1 µM", "value": 46.2, "unit": "%"},
      {"measurement": "viability, T/C", "setting": "[9]", "value": 45.7, "unit": "%"},
      {"measurement": "viability, T/C", "setting": "[10]", "value": 54.1, "unit": "%"},
      {"measurement": "viability, T/C", "setting": "[11]", "value": 51.5, "unit": "%"},
      {"measurement": "viability, T/C", "setting": "[12]", "value": 49.8, "unit": "%"},
      {"measurement": "viability, T/C", "setting": "second compound 1 µM, first compound 0.316 µM", "value": 41.8, "unit": "%"},
      {"measurement": "viability, T/C", "setting": "second compound 1 µM, first compound 1 µM", "value": 38, "unit": "%"},
      {"measurement": "viability, T/C", "setting": "[13]", "value": 55.2, "unit": "%"},
      {"measurement": "viability, T/C", "setting": "[14]", "value": 50.2, "unit": "%"},
      {"measurement": "viability, T/C", "setting": "[15]", "value": 50.1, "unit": "%"},
      {"measurement": "viability, T/C", "setting": "[16]", "value": 44.9, "unit": "%"},
      {"measurement": "viability, T/C", "setting": "second compound 3.16 µM, first compound 0.316 µM", "value": 39.1, "unit": "%"},
      {"measurement": "viability, T/C", "setting": "second compound 3.16 µM, first compound 1 µM", "value": 41.8, "unit": "%"},
      {"measurement": "viability, T/C", "setting": "[17]", "value": 48.8, "unit": "%"},
      {"measurement": "viability, T/C", "setting": "[18]", "value": 53.9, "unit": "%"},
      {"measurement": "viability, T/C", "setting": "[19]", "value": 50.5, "unit": "%"},
      {"measurement": "viability, T/C", "setting": "[20]", "value": 46.9, "unit": "%"},
      {"measurement": "viability, T/C", "setting": "second compound 10 µM, first compound 0.316 µM", "value": 36.2, "unit": "%"},
      {"measurement": "viability, T/C", "setting": "second compound 10 µM, first compound 1 µM", "value": 36.7, "unit": "%"}
    ]},
    {"smiles": "Cn1ncnc1C1c2n[nH]c(=O)c3cc(F)cc(c23)NC1c1ccc(F)cc1", "note": "(stereo not given) + NC1CCC(NC2CC2c2ccccc2)CC1", "values": [
      {"measurement": "pIC50", "setting": "second compound 0.1 µM", "value": "< 7.00"},
      {"measurement": "pIC50", "setting": "second compound 0.316 µM", "value": "< 7.00"},
      {"measurement": "pIC50", "setting": "second compound 1 µM", "value": "< 7.00"},
      {"measurement": "pIC50", "setting": "second compound 3.16 µM", "value": "< 7.00"},
      {"measurement": "pIC50", "setting": "second compound 10 µM", "value": "< 7.00"},
      {"measurement": "viability, T/C", "setting": "second compound 0.1 µM, first compound 0.000316 µM", "value": 109, "unit": "%"},
      {"measurement": "viability, T/C", "setting": "second compound 0.1 µM, first compound 0.001 µM", "value": 99.9, "unit": "%"},
      {"measurement": "viability, T/C", "setting": "[1]", "value": 98, "unit": "%"},
      {"measurement": "viability, T/C", "setting": "[2]", "value": 94.1, "unit": "%"},
      {"measurement": "viability, T/C", "setting": "[3]", "value": 83, "unit": "%"},
      {"measurement": "viability, T/C", "setting": "[4]", "value": 87.3, "unit": "%"},
      {"measurement": "viability, T/C", "setting": "second compound 0.316 µM, first compound 0.000316 µM", "value": 103, "unit": "%"},
      {"measurement": "viability, T/C", "setting": "second compound 0.316 µM, first compound 0.001 µM", "value": 92.4, "unit": "%"},
      {"measurement": "viability, T/C", "setting": "[5]", "value": 89.8, "unit": "%"},
      {"measurement": "viability, T/C", "setting": "[6]", "value": 92.8, "unit": "%"},
      {"measurement": "viability, T/C", "setting": "[7]", "value": 85.1, "unit": "%"},
      {"measurement": "viability, T/C", "setting": "[8]", "value": 80.6, "unit": "%"},
      {"measurement": "viability, T/C", "setting": "second compound 1 µM, first compound 0.000316 µM", "value": 90.5, "unit": "%"},
      {"measurement": "viability, T/C", "setting": "second compound 1 µM, first compound 0.001 µM", "value": 95.5, "unit": "%"},
      {"measurement": "viability, T/C", "setting": "[9]", "value": 90.1, "unit": "%"},
      {"measurement": "viability, T/C", "setting": "[10]", "value": 87.2, "unit": "%"},
      {"measurement": "viability, T/C", "setting": "[11]", "value": 81.8, "unit": "%"},
      {"measurement": "viability, T/C", "setting": "[12]", "value": 73.6, "unit": "%"},
      {"measurement": "viability, T/C", "setting": "second compound 3.16 µM, first compound 0.000316 µM", "value": 100, "unit": "%"},
      {"measurement": "viability, T/C", "setting": "second compound 3.16 µM, first compound 0.001 µM", "value": 96.5, "unit": "%"},
      {"measurement": "viability, T/C", "setting": "[13]", "value": 95, "unit": "%"},
      {"measurement": "viability, T/C", "setting": "[14]", "value": 85.9, "unit": "%"},
      {"measurement": "viability, T/C", "setting": "[15]", "value": 85.2, "unit": "%"},
      {"measurement": "viability, T/C", "setting": "[16]", "value": 76.3, "unit": "%"},
      {"measurement": "viability, T/C", "setting": "second compound 10 µM, first compound 0.000316 µM", "value": 93.7, "unit": "%"},
      {"measurement": "viability, T/C", "setting": "second compound 10 µM, first compound 0.001 µM", "value": 97.2, "unit": "%"},
      {"measurement": "viability, T/C", "setting": "[17]", "value": 92.8, "unit": "%"},
      {"measurement": "viability, T/C", "setting": "[18]", "value": 84.6, "unit": "%"},
      {"measurement": "viability, T/C", "setting": "[19]", "value": 82, "unit": "%"},
      {"measurement": "viability, T/C", "setting": "[20]", "value": 74.2, "unit": "%"}
    ]}
  ]
}
